Measurements: patent publication US7709498B2, “Quinoline derivatives as antibacterial agents” (Janssen Pharmaceutica N.V., priority 2005, dated 2010)
Values after ≈ are worked out from the molar mass of the structure shown.

How the values were obtained:
Type in all cases: cell-based
[1] = tested on: Listeria monocytogenes (ATCC49594); test: Microtitre plate assay, IC90 determination, LMO 49594; conditions: Listeria monocytogenes, ATCC49594, 24 h, 90% inhibitory concentration for bacterial growth, 37° C., resazurin fluorescence, read-out: IC90 (μg/ml) LMO 49594
Experimental: (§1) The bacteria used in this study were grown overnight in flasks containing 100 ml Mueller-Hinton Broth (Becton Dickinson—cat. no. 275730) in sterile de-ionized water, with shaking, at 37° C. Stocks (0.5 ml/tube) were stored at −70° C. until use. Bacteria titrations were performed in microtiter plates to detect the TCID50, in which the TCID50 represents the dilution that gives rise to bacterial growth in 50% of inoculated cultures.
(§2) In general, an inoculum level of approximately 100 TCID50 was used for susceptibility testing.
(§3) Flat-bottom, sterile 96-well plastic microtiter plates were filled with 180 μl of sterile deionized water, supplemented with 0.25% BSA. Subsequently, stock solutions (7.8× final test concentration) of compounds were added in 45 μl volumes in column 2. Serial five-fold dilutions (45 μl in 180 μl) were made directly in the microtiter plates from column 2 to reach column 11. Untreated control samples with (column 1) and without (column 12) inoculum were included in each microtiter plate. Depending on the bacteria type, approximately 10 to 60 CFU per well of bacteria inoculum (100 TCID50), in a volume of 100 μl in 2.8× Mueller-Hinton broth medium, was added to the rows A to H, except column 12. The same volume of broth medium without inoculum was added to column 12 in row A to H. The cultures were incubated at 37° C. for 24 hours under a normal atmosphere (incubator with open air valve and continuous ventilation). At the end of incubation, one day after inoculation, the bacterial growth was quantitated fluorometrically. Therefore resazurin (0.6 mg/ml) was added in a volume of 20 μl to all wells 3 hours after inoculation, and the plates were re-incubated overnight. A change in colour from blue to pink indicated the growth of bacteria. The fluorescence was read in a computer-controlled fluorometer (Cytofluor Biosearch) at an excitation wavelength of 530 nm and an emission wavelength of 590 nm. The % growth inhibition achieved by the compounds was calculated according to standard methods. The IC90 (expressed in μg/ml) was defined as the 90% inhibitory concentration for bacterial growth.
(§4) BSU 3639 means Bacillus subtilis (ATCC43639); ECO 25922 means Escherichia coli (ATCC25922); EFA 14506 means Enterococcus faecalis (ATCC14506); EFA 29212 means Enterococcus faecalis (ATCC29212); LMO 49594 means Listeria monocytogenes (ATCC49594); PAE 27853 means Pseudomonas aeruginosa (ATCC27853); SMU 33402 means Streptococcus mutans (ATCC33402); SPN 6305 means Streptococcus pneumoniae (ATCC6305); SPY 8668 means Streptococcus pyogens (ATCC8668); STA 43300 means Staphylococcus aureus (ATCC43300); STA 25923 means Staphylococcus aureus (ATCC25923); STA 29213 means Staphylococcus aureus (ATCC29213); STA RMETH means methicilline resistant Staphylococcus aureus (MRSA) (a clinical isolate from the University of Antwerp). ATCC means American type tissue culture.

[2] = tested on: Streptococcus pneumoniae (ATCC6305); test: Microtitre plate assay, IC90 determination, SPN 6305; conditions: 90% inhibitory concentration for bacterial growth, 37° C., resazurin fluorescence; for IC90 (μg/ml) SPN 6305: 24 hours; for IC90: Streptococcus pneumoniae, ATCC6305, 24 h, read-out: IC90 (μg/ml) SPN 6305
Experimental: as §1, §2, §3, §4

[3] = tested on: Streptococcus mutans (ATCC33402); test: Microtitre plate assay, IC90 determination, SMU 33402; conditions: Streptococcus mutans, ATCC33402, 24 h, 90% inhibitory concentration for bacterial growth, 37° C., resazurin fluorescence, read-out: IC90 (μg/ml) SMU 33402
Experimental: as §1, §2, §3, §4

[4] = tested on: Streptococcus pyogens (ATCC8668); test: Microtitre plate assay, IC90 determination, SPY 8668; conditions: Streptococcus, ATCC8668, 24 h, 90% inhibitory concentration for bacterial growth, 37° C., resazurin fluorescence, read-out: IC90 (μg/ml) SPY 8668
Experimental: as §1, §2, §3, §4

Q: `COc1nc2ccccc2cc1C(c1ccccc1)C(O)(CCN(C)C)c1ccccc1` (stereo not drawn) [Compound 41] was tested. Which IC90 [1] did it give?
A: 17 µg/mL (≈ 39.9 µM)

Q: Which “IC90 (μg/ml) SPN 6305” value [2] does the source give for `COc1nc2ccc(Br)cc2cc1C(c1ccccc1)C(O)(CCN1CCCCC1)c1ccccc1` (stereo not drawn) [Compound 47] here?
A: 6.9 µg/mL (≈ 12.6 µM)

Q: How did the IC90 [2] turn out when `COc1nc2ccc(Br)cc2cc1C(c1ccccc1)C(O)(CCN(C)C)c1cc(F)ccc1F` (stereo not drawn) [Compound 67] was run?
A: 13.6 µg/mL (≈ 25.1 µM)

Q: What about the IC90 [1] of the same compound?
A: 10.8 µg/mL (≈ 19.9 µM)

Q: How did the IC90 [2] turn out when `COc1nc2ccc(Br)cc2cc1C(c1ccc(C)cc1)C(O)(CCN(C)C)c1cccc2ccccc12` (stereo not drawn) [Compound 72] was run?
A: 14.3 µg/mL (≈ 25.1 µM)

Q: And the IC90 [3]?
A: 9 µg/mL (≈ 15.8 µM)

Q: And the IC90 [4]?
A: 11.4 µg/mL (≈ 20 µM)

Q: What does the source list for `COc1nc2ccc(Br)cc2cc1C(c1ccc(Cl)cc1)C(O)(CCN(C)C)c1cccc2ccccc12` (stereo not drawn) [Compound 73]?
A: IC90 [3]: 11.8 µg/mL (≈ 20 µM); IC90 [4]: 14.8 µg/mL (≈ 25.1 µM)

Q: Which results are given for `COc1nc2ccc(Br)cc2cc1C(c1ccccc1)C(O)(CCN(C)C)c1ccc2c(c1)OCCO2` (stereo not drawn) [Compound 78]?
A: IC90 (μg/ml) SPN 6305 [2]: 11.2 µg/mL (≈ 19.9 µM); IC90 [3]: 11.2 µg/mL (≈ 19.9 µM); IC90 [4]: 11.2 µg/mL (≈ 19.9 µM)

Q: What does the source list for `COc1nc2ccc(-c3ccccc3)cc2cc1C(c1ccccc1)C(O)(CCN(C)C)c1cccc2ccccc12` (stereo not drawn) [Compound 84]?
A: IC90 [2]: 7 µg/mL (≈ 12.7 µM); IC90 [3]: 11 µg/mL (≈ 19.9 µM); IC90 [4]: 11 µg/mL (≈ 19.9 µM); IC90 [1]: 11 µg/mL (≈ 19.9 µM)

Q: With `COc1nc2ccc(Br)cc2cc1C(c1ccccc1)C(O)(CCN(C)C)c1cccc(F)c1` (stereo not drawn) [Compound 108] as the compound, how does the “IC90 (μg/ml) SPN 6305” value [2] read?
A: 13.1 µg/mL (≈ 25 µM)

Q: Which results are given for `COc1nc2ccc(Br)cc2cc1C(c1ccccc1)C(O)(CCN(C)C)c1cccc(F)c1F` (stereo not drawn) [Compound 113]?
A: IC90 [2]: 13.6 µg/mL (≈ 25.1 µM); IC90 [1]: 10.8 µg/mL (≈ 19.9 µM)

Q: For `COc1nc2ccc(Br)cc2cc1C(c1ccccc1)C(O)(CCN(C)C)c1cc(F)cc(F)c1` (stereo not drawn) [Compound 116], which IC90 [1] is on record?
A: 10.8 µg/mL (≈ 19.9 µM)

Q: For `COc1nc2ccc(Br)cc2cc1C(c1ccccc1)C(O)(CCN1CCCCC1)c1ccc2ccccc2c1` (stereo not drawn) [Compound 128], which IC90 [1] is on record?
A: 9.4 µg/mL (≈ 15.8 µM)

Q: `COc1nc2ccc(Br)cc2cc1C(c1ccccc1)C(O)(CCN1CCCCC1)c1ccc2ccccc2c1` (stereo not drawn) [Compound 129] was tested. Which IC90 [2] did it give?
A: 15 µg/mL (≈ 25.2 µM)

Q: What about the IC90 [3] of the same compound?
A: 11.9 µg/mL (≈ 20 µM)

Q: And the IC90 [4]?
A: 11.9 µg/mL (≈ 20 µM)

Q: `COc1nc2ccc(Br)cc2cc1C(c1ccccc1)C(O)(CCN(C)C)c1ccc2c(Br)cccc2c1` (stereo not drawn) [Compound 130] was tested. Which IC90 [3] did it give?
A: 10.1 µg/mL (≈ 15.9 µM)

Q: For `COc1ccc2cc(C(O)(CCN(C)C)C(c3ccccc3)c3cc4cc(Br)ccc4nc3OC)ccc2c1` (stereo not drawn) [Compound 163], which IC90 [2] is on record?
A: 14.7 µg/mL (≈ 25.1 µM)

Q: How did the IC90 [2] turn out when `COc1nc2ccc(Br)cc2cc1C(c1ccccc1)C(O)(CCN1CCCCC1)c1ccc2cc(Br)ccc2c1` (stereo not drawn) [Compound 166] was run?
A: 16.9 µg/mL (≈ 25.1 µM)

Q: `COc1nc2ccc(Br)cc2cc1C(c1ccccc1)C(O)(CCN1CCCC1)c1ccc2ccccc2c1` (stereo not drawn) [Compound 170] was tested. Which IC90 [2] did it give?
A: 26 µg/mL (≈ 44.7 µM)

Q: For `COc1nc2ccc(-c3ccco3)cc2cc1C(c1ccccc1)C(O)(CCN(C)C)c1cccc(F)c1` (stereo not drawn) [Compound 174], which IC90 [1] is on record?
A: 10.2 µg/mL (≈ 20 µM)

Q: For `COc1nc2ccc(Br)cc2cc1C(c1ccccc1)C(O)(CCN(C)C)c1ccc(F)c(F)c1` (stereo not drawn) [Compound 196], which IC90 [3] is on record?
A: 10.8 µg/mL (≈ 19.9 µM)

Q: For `COc1nc2ccc(Br)cc2cc1C(c1ccc(F)cc1)C(O)(CCN(C)C)c1cccc2ccccc12` (stereo not drawn) [Compound 206], which IC90 [2] is on record?
A: 12.8 µg/mL (≈ 22.3 µM)

Q: For `COc1nc2ccc(Br)cc2cc1C(c1ccccc1)C(O)(CCN1CCN(c2ncccn2)CC1)c1ccc2ccccc2c1` (stereo not drawn) [Compound 209], which IC90 [2] is on record?
A: 15.1 µg/mL (≈ 22.4 µM)

Q: How did the IC90 [2] turn out when `CNCCC(O)(c1ccccc1)C(c1ccccc1)c1cc2cc(Br)ccc2nc1OC` (stereo not drawn) [Compound D] was run?
A: 4.9 µg/mL (≈ 9.97 µM)

Q: `COc1nc2ccc(-c3ccco3)cc2cc1C(c1ccccc1)C(O)(CCN(C)C)c1cccc2ccccc12` (stereo not drawn) [Compound H] was tested. Which IC90 [2] did it give?
A: 13.6 µg/mL (≈ 25.1 µM)

Q: What about the IC90 [1] of the same compound?
A: 13.6 µg/mL (≈ 25.1 µM)

Q: How did the IC90 [2] turn out when `COc1nc2ccc(Br)cc2cc1C(c1ccccc1)C(O)(CCN(C)C)c1ccc2c3c(cccc13)CC2` (stereo not drawn) [Compound I] was run?
A: 11.6 µg/mL (≈ 19.9 µM)
